Source: patent US20210395313A1, “PEPTIDE PAC1 ANTAGONISTS” (AMGEN INC., priority 2017, published 2021)
Where a SMILES comes first, the peptide text is derived from it. Bridges are numbered along the chain shown (N, C = ends). Where no end group is shown, it is not given here.

What was measured:
rat PAC1 receptor = target: T1, rat PAC1 receptor (Rattus norvegicus, UniProt P32215); experiment: LANCE Ultra cAMP accumulation antagonist assay in RG-2 cells; format: cell-based;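 also: RG-2 rat glioma cells endogenously expressing PAC1, test peptide preincubated 30 min, then PAC1 agonist added at its EC80 for 15 min, cAMP accumulation read by LANCE Ultra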
T1 construct: SHSY-5Y (human neuroblastoma cell line) and RG-2 (rat glioma cell line) cells endogenously express human and rat PAC1 receptors, respectively; endogenous in cells; host or cells: RG-2 rat glioma cells
T1 sequence (P32215 20-523): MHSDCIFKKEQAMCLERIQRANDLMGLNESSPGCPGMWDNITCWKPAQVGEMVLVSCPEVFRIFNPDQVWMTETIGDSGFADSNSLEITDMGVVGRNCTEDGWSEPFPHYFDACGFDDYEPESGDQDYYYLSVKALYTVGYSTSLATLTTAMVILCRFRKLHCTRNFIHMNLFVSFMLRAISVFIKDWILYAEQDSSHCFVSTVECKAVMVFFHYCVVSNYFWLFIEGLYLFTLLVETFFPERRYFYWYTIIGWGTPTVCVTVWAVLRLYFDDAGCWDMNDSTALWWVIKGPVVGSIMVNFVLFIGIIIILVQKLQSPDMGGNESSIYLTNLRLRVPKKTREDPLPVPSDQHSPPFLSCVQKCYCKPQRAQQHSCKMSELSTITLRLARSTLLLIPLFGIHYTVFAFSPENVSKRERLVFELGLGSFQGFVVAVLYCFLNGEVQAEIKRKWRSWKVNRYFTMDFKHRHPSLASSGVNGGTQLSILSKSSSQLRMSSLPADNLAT
Procedure: (§1) In order to determine the potency of peptide antagonists at the PAC1 receptor, functional cAMP accumulation assays using LANCE Ultra cAMP assay kit to measure the agonist and antagonist activity of PAC1 peptides were used. SHSY-5Y (human neuroblastoma cell line) and RG-2 (rat glioma cell line) cells endogenously express human and rat PAC1 receptors, respectively. Agonist activity of PAC1 peptides was tested by incubating with SHSY-5Y at 2,000 cells per well or RG-2 at 5,000 cells per well for 15 minutes at room temperature. PAC1 receptor agonist PACAP38 or maxadilan was included as a positive control. The reaction was stopped by adding detection mixture, europium (Eu) chelate-labeled cAMP tracer and cAMP-specific monoclonal antibodies labeled with the ULight™ dye, to all wells followed by a 60-minute incubation at room temperature. The assay plates were then read on an EnVision instrument at an emission wavelength of 665 and 615 nm and data were analyzed using Genedata Screener or GraphPad Prism software. A similar procedure was used in the antagonist assays by using a fixed concentration of PAC1 agonist. The concentrations of agonists were chosen based on their ECK) values at PAC1 receptors in SHSY-5Y or RG-2 cells. SHSY-5Y or RG-2 cells were added into 96-well half-area white plates. Serially diluted PAC1 peptides at ten concentrations were added and incubated for 30 minutes at room temperature. PAC1 agonist at EC80 concentration was then added and further incubated for 15 minutes at room temperature. The reaction was stopped by adding detection mixture to all wells followed by a 60-minute incubation at room temperature. The assay plates were read and analyzed the same way as that of agonist assay. Cells, agonists, and PAC1 peptides were prepared in freshly made assay buffer (F-12, 0.5 mM IBMX, 0.1 or 0.4% BSA (pH 7.4)). Detection mixture was made by mixing a 1/50 dilution of the Eu-cAMP tracer stock solution in cAMP Detection Buffer and a 1/150 dilution of the ULight-anti-cAMP stock solution in cAMP Detection Buffer. Europium (Eu) chelate-labeled cAMP tracer, cAMP-specific monoclonal antibodies labeled with the ULight™ dye, BSA, and detection buffer were provided in LANCE Ultra cAMP Kit from PerkinElmer

human PAC1 receptor = target: T2, human PAC1 receptor (Homo sapiens, UniProt P41586); experiment: LANCE Ultra cAMP accumulation antagonist assay in SHSY-5Y cells; format: cell-based;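 also: inhibition of cAMP accumulation evoked by PAC1 agonist at its EC80 in SHSY-5Y cells endogenously expressing receptor, 30 min preincubation then 15 min agonist, TR-FRET readout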
T2 construct: SHSY-5Y (human neuroblastoma cell line) and RG-2 (rat glioma cell line) cells endogenously express human and rat PAC1 receptors, respectively; endogenous in cells; host or cells: SHSY-5Y human neuroblastoma cells
T2 sequence (P41586 21-468): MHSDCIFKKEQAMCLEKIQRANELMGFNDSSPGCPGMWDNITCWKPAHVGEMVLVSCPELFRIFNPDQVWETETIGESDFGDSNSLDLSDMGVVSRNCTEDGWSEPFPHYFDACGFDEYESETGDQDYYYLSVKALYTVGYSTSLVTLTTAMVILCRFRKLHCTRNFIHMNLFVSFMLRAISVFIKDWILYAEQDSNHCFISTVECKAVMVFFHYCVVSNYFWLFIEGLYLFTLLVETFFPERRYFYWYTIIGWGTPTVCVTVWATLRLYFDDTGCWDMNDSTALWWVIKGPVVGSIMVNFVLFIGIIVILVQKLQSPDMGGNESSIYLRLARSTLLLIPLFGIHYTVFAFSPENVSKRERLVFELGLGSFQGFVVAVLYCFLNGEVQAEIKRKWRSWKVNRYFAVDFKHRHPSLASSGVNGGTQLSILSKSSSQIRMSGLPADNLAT
Procedure: as §1

Compound | IC50 (rat PAC1 receptor) [nM] | IC50 (human PAC1 receptor) [nM]
CDATCQFRKAIDDCYYRAWHSNVPGSVFKACMKQKKKEFKAG-NH2 (disulfide 1-5, 14-31) [compound 104] | 0.01 to 1 | 0.01 to 1
CDATCQFRKAIDDCAWFALHSNVPGSVFKACMKQKKKEFKAG-NH2 (disulfide 1-5, 14-31) [compound 91] | 0.01 to 1 | 0.01 to 1
CDATCQFRKAIDDCDRQAHHSNVPGSVFKACMKQKKKEWKANN (disulfide 1-5, 14-31) [compound 154] | 0.01 to 1 | 0.01 to 1
CC[C@H](C)[C@H](NC(=O)[C@H](C)NC(=O)[C@H](CCCCN)NC(=O)[C@H](CCCNC(=N)N)NC(=O)[C@H](Cc1ccccc1)NC(=O)[C@H](CCC(N)=O)NC(=O)[C@@H]1CSSC[C@H](N)C(=O)N[C@@H](CC(=O)O)C(=O)N[C@@H](C)C(=O)N[C@@H]([C@@H](C)O)C(=O)N1)C(=O)N[C@@H](CC(=O)O)C(=O)N[C@@H](CC(=O)O)C(=O)N[C@H]1CSSC[C@@H](C(=O)N[C@@H](CCSC)C(=O)N[C@@H](CCCCN)C(=O)N[C@@H](CCC(N)=O)C(=O)N[C@@H](CCCCN)C(=O)N[C@@H](CCCCN)C(=O)N[C@@H](CCCCN)C(=O)N[C@@H](CCC(=O)O)C(=O)N[C@@H](Cc2c[nH]c3ccccc23)C(=O)N[C@@H](CCCCN)C(=O)N[C@@H](C)C(=O)NCC(N)=O)NC(=O)[C@H](C)NC(=O)[C@H](CCCCN)NC(=O)[C@H](Cc2ccccc2)NC(=O)[C@H](C(C)C)NC(=O)[C@H](CO)NC(=O)[C@H](CO)NC(=O)[C@H](Cc2c[nH]cn2)NC(=O)[C@H](Cc2c[nH]c3ccccc23)NC(=O)[C@H](CO)NC(=O)[C@H](CCCNC(=N)N)NC(=O)[C@H](Cc2ccc(O)cc2)NC(=O)[C@H](Cc2ccc(O)cc2)NC1=O [compound 61] (H-CDATCQFRKAIDDCYYRSWHSSVFKACMKQKKKEWKAG-NH2; disulfide 1-5, 14-27) | 0.01 to 1 | 0.01 to 1
CDATCQFRKAIDDCQKQAHHSNVPGSVFKTCMKQKKKEFKAG-NH2 (disulfide 1-5, 14-31) [compound 146] | 0.01 to 1 | 0.01 to 1
GCDATCQFRKAIDDCAKQAHHSNVPGSVFKACMKQKKKEFKAGH (disulfide 2-6, 15-32) [compound 59] | 0.01 to 1 | 0.01 to 1
CC[C@H](C)[C@H](NC(=O)[C@H](C)NC(=O)[C@H](CCCCN)NC(=O)[C@H](CCCNC(=N)N)NC(=O)[C@H](Cc1ccccc1)NC(=O)[C@H](CCC(N)=O)NC(=O)[C@@H]1CSSC[C@H](N)C(=O)N[C@@H](CC(=O)O)C(=O)N[C@@H](C)C(=O)N[C@@H]([C@@H](C)O)C(=O)N1)C(=O)N[C@@H](CC(=O)O)C(=O)N[C@@H](CC(=O)O)C(=O)N[C@H]1CSSC[C@@H](C(=O)N[C@@H](CCSC)C(=O)N[C@@H](CCCCN)C(=O)N[C@@H](CCC(N)=O)C(=O)N[C@@H](CCCCN)C(=O)N[C@@H](CCCCN)C(=O)N[C@@H](CCCCN)C(=O)N[C@@H](CCC(=O)O)C(=O)N[C@@H](Cc2ccccc2)C(=O)N[C@@H](CCCCN)C(N)=O)NC(=O)[C@H](CCC(=O)O)NC(=O)[C@H](CCCCN)NC(=O)[C@H](Cc2ccccc2)NC(=O)[C@H](C(C)C)NC(=O)[C@H](CO)NC(=O)[C@H](CO)NC(=O)[C@H](Cc2c[nH]cn2)NC(=O)[C@H](Cc2c[nH]cn2)NC(=O)[C@H](C)NC(=O)[C@H](CCC(N)=O)NC(=O)[C@H](CCCCN)NC(=O)[C@H](CC(=O)O)NC1=O [compound 223] | 1 to 100 | < 0.01
CDATCQFRKAIDDCQKQAHHSNVPGSVFKACMKQKKKEFKAGW (disulfide 1-5, 14-31) [compound 145] | 0.01 to 1 | 0.01 to 1
CDATCHFRKAIDDCQKQAHHSNVPGSVFKACMKQHKKRWRAG-NH2 (disulfide 1-5, 14-31) [compound 124] | 0.01 to 1 | 0.01 to 1
CDATCQFRKAIDDCYYRSRHSNVPGSVFKACMKQKKKEFKAG-NH2 (disulfide 1-5, 14-31) [compound 44] | < 0.01 | 0.01 to 1
CDATCQFRKAIDDCFYQAWHSNVPGSVWKACMKQKKKEFKAG-NH2 (disulfide 1-5, 14-31) [compound 139] | 0.01 to 1 | 0.01 to 1
CDATCQFRKAIDDCYYRSWHANVPGSVFKACMKQKKKEWKAG-NH2 (disulfide 1-5, 14-31) [compound 60] | 0.01 to 1 | 0.01 to 1
CDATCQFRKAIDDCVWKAFHANVPGSVFKACMKQKKKEFKAG-NH2 (disulfide 1-5, 14-31) [compound 118] | 0.01 to 1 | 0.01 to 1
CDATCQFRKAIDDCIFWAAHSNVPGSVFKACMKQKKKEFKAG-NH2 (disulfide 1-5, 14-31) [compound 123] | 0.01 to 1 | 0.01 to 1
CDATCQFRKAIDDCAKQAHHSNVPGSVFKACMKQKKKEWKAGH (disulfide 1-5, 14-31) [SEQ ID NO 152] | 0.01 to 1 | 0.01 to 1
CDATCQFRKAIDDCWKQAHHSNVPGSVFKACMKQKKKEFKAG-NH2 (disulfide 1-5, 14-31) [compound 80] | < 0.01 | 0.01 to 1
CDATCQFRKAIDDCVKQAHHSNVPGSVFKACMKQKKKEFKAGH (disulfide 1-5, 14-31) [SEQ ID NO 94] | 0.01 to 1 | 0.01 to 1
CDATCQFRKAIDDCAKASWHSNVPGSVFKSCMKQKKKEWKAGH-NH2 (disulfide 1-5, 14-31) [compound 1] | < 0.01 | 0.01 to 1
CDATCQFRKAIDDCMLLSWHSNVPGSVFKACMKQKKKEFKAG-NH2 (disulfide 1-5, 14-31) [compound 132] | < 0.01 | 0.01 to 1
CDATCQFRKAIDDCYYRSHHSNVPGSVFKACMKQKKKEFKAG-NH2 (disulfide 1-5, 14-31) [compound 45] | 0.01 to 1 | 0.01 to 1
CDATCQFRKAIDDCFWLASHSNVPGSVWKACMKQKKKEFKAG-NH2 (disulfide 1-5, 14-31) [compound 119] | 0.01 to 1 | 0.01 to 1
CDATCQFRKAIDDCFTWSWHSNVPGSVFKACMKQKKKEFKAG-NH2 (disulfide 1-5, 14-31) [compound 135] | 0.01 to 1 | 0.01 to 1
CDATCQFRKAIDDCARQAHHSQVPGSVFKACMKQKKKEWKAGH (disulfide 1-5, 14-31) [compound 22] | 0.01 to 1 | 0.01 to 1
CDATCQFRKAIDDCQKQAHHSNVPGSVFKACMKFRRFLWKAG-NH2 (disulfide 1-5, 14-31) [compound 128] | 0.01 to 1 | 0.01 to 1
CDATCQFRKAIDDCQKQAHHSNVPGSVFKACMKQKKKEFKAR (disulfide 1-5, 14-31) [compound 68] | 0.01 to 1 | 0.01 to 1
CDATCQFRKAIDDCVWYSMHSNVPGSVFKACMKQKKKEFKAG-NH2 (disulfide 1-5, 14-31) [compound 133] | 0.01 to 1 | 0.01 to 1
CDATCQFRKAIDDCQKQAHHSNVPGSVFKACVLQKKKEFKAG-NH2 (disulfide 1-5, 14-31) [compound 93] | 1 to 100 | 1 to 100
CDATCQFRKAIDDCWMLSWHANVPGSVFKACMKQKKKEFKAG-NH2 (disulfide 1-5, 14-31) [compound 92] | 0.01 to 1 | 0.01 to 1
CC[C@H](C)[C@H](NC(=O)[C@H](C)NC(=O)[C@H](CCCCN)NC(=O)[C@H](CCCNC(=N)N)NC(=O)[C@H](Cc1ccccc1)NC(=O)[C@H](CCC(N)=O)NC(=O)[C@@H]1CSSC[C@H](NC(=O)CN)C(=O)N[C@@H](CC(=O)O)C(=O)N[C@@H](C)C(=O)N[C@@H]([C@@H](C)O)C(=O)N1)C(=O)N[C@@H](CC(=O)O)C(=O)N[C@@H](CC(=O)O)C(=O)N[C@H]1CSSC[C@@H](C(=O)N[C@@H](CCSC)C(=O)N[C@@H](CCCCN)C(=O)N[C@@H](CCC(N)=O)C(=O)N[C@@H](CCCCN)C(=O)N[C@@H](CCCCN)C(=O)N[C@@H](CCCCN)C(=O)N[C@@H](CCC(=O)O)C(=O)N[C@@H](Cc2c[nH]c3ccccc23)C(=O)N[C@@H](CCCCN)C(=O)N[C@@H](C)C(=O)NCC(=O)N[C@@H](Cc2c[nH]cn2)C(=O)O)NC(=O)[C@H](C)NC(=O)[C@H](CCCCN)NC(=O)[C@H](Cc2ccccc2)NC(=O)[C@H](C(C)C)NC(=O)[C@H](CO)NC(=O)[C@H](CO)NC(=O)[C@H](Cc2c[nH]cn2)NC(=O)[C@H](Cc2c[nH]cn2)NC(=O)[C@H](C)NC(=O)[C@H](CCC(N)=O)NC(=O)[C@H](CCCNC(=N)N)NC(=O)[C@H](C(C)C)NC1=O [compound 15] (H-GCDATCQFRKAIDDCVRQAHHSSVFKACMKQKKKEWKAGH-OH; disulfide 2-6, 15-28) | 0.01 to 1 | 0.01 to 1
CDATCQFRKAIDDCYYRSWHSNVPGSVFKACMKQRKKRWLAG-NH2 (disulfide 1-5, 14-31) [compound 69] | 0.01 to 1 | 0.01 to 1
